Test results: US20080313748A1, “Transgenic Non-Human Animals Comprising the Human Udp-Glucuronosyltransferase 1A (Ugt1a) Gene Locus and Methods of Using Them” (priority 2004, published 2008)
Where “and” joins values, the source holds several entries; their conditions need not be identical. Identical values can stand only once. Entries after “also recorded” stand apart in the source; their conditions may differ. Like-named read-outs stand apart in the source and are kept apart here.

What was measured:
[1] = test system: human UGT1A1; conditions: for UGT1A1 protein induction: small and large intestinal microsomes, TCDD 16 μg/kg or PCN
Source text: (§1) Microsomal Protein Isolation from Transgenic Mouse Tissues. Using three animals per group, the liver, small and large intestinal tissues were collected from Tg-UGT1 and wild type mice. For the small and large intestine, the tissue was dissected open lengthwise and the luminal surface gently rinsed in 1.15% KCl before freezing on dry ice. Tissue samples from each treatment group were combined and frozen in liquid nitrogen in a porcelain mortar and pulverized under liquid nitrogen. A sample of the pulverized tissue was added to 5 volumes of 1.15% ice cold KCl and the tissue homogenized using a motorized glass-teflon homogenizer. The tissue homogenate was first centrifuged at 2,000×g for 10 min at 4° C. and the supernatant was collected. The supernatant was then centrifuged at 9,000×g for 10 min at 4° C. and this resulting supernatant centrifuged at 100,000×g for 60 min at 4° C. The pellet was resuspended in buffer (50 mM Tris-HCl pH 7.4, 10 mM MgCl2, 1 mM PMSF) and the protein concentration determined by the Bradford method.
(§2) Immunoblot Analysis. All Western blots were performed using NuPAGE Bis-Tris polyacrylamide gels as outlined by the supplier (Invitrogen, Carlsbad, Calif.). Protein was heated at 70° C. for 10 min in loading buffer and resolved in 4-12% Bis-Tris gels under denaturing conditions (50 mM MOPS, 50 mM Tris-base, pH 7.7, 0.1% SDS, 1 mM EDTA) prior to transferring the proteins to polyvinylidene difluoride membrane using a semidry transfer system (Norvex, England). The membrane was blocked with 5% nonfat dry milk in 10 mM Tris-HCl, pH7.4 containing 0.15 M NaCl and 0.05% Tween 20 (Tris-buffered saline) for 1 h at room temperature, followed by incubation with primary antibodies (mouse anti-human UGT1A1, UGT1A4 or UGT1A6) in Tris-buffered saline overnight at 4° C. Membranes were washed and exposed to horseradish peroxidase-conjugated secondary antibodies for 1 h at room temperature. Each membrane was again washed and the conjugated horseradish peroxidase was detected using the ECL plus Western blotting detection system (Amersham) and the proteins detected following exposure to X-ray film.
(§3) For both TCDD and PCN, the administration was by the intraperitoneal route, and each mouse was treated every 24 hours over a three day period. Tissues from three mice were then pooled and pulverized under liquid nitrogen, and samples used for microsomal preparation as well as for the isolation of total RNA.
(§4) Three Tg-UGT^1c or wild type (WT) mice were treated by intraperitoneal injection every 24 hours with either DMSO, TCDD (16 μg/kg) or PCN (10 mg/kg) for 3 days. After 72 hours, the small intestines from each treatment group were combined and the large intestines from each treatment group were combined and the tissues pulverized under liquid nitrogen. A sample of each tissue was then used to prepare microsomes or to isolate total RNA. FIG. 4A: Western blot analysis of small and large intestinal microsomal protein using UGT1A1-, UGT1A4- or UGT1A6 specific antibodies. Included as control is a sample of each protein generated from the expression of cDNAs in stably transfected HEK293 cells. FIG. 4B: RNA prepared from the same samples of tissue were used in RT-PCR studies and the isoform specific products identified in ethidium bromide stained agarose gels.
(§5) Induction of the UGT1 locus in liver by PCN and TCDD. […] Wild type and Tg-UGT^1c mice were treated every 24 hours with TCDD (16 μg/kg) or PCN (10 mg/kg) by intraperitoneal injection for 3 days, and the livers from three animals per group combined and used to prepare microsomes or to isolate total RNA.

[2] = test system: human UGT1A4; conditions: for UGT1A4 protein induction: small and large intestine
Source text: as §1, §2, §3, §4, §5

[3] = test system: human UGT1A6; conditions: for UGT1A6 protein regulation: small and large intestine
Source text: as §1, §2, §3, §4, §5

[4] = test system: UGT1A gene transcripts (human UGT1 locus); test: Isoform-specific RT-PCR of UGT1A gene transcripts in tissues of treated Tg-UGT1c mice; assay type: in vivo, mouse; conditions: for UGT1A1 RNA induction / UGT1A4 RNA / UGT1A6 RNA induction / UGT1A gene transcript induction: RT-PCR; for UGT1A gene transcript induction: small and large intestine, i.p. 3 days
Experimental: Analysis of UGT1 gene expression patterns by reverse transcription-PCR: For RNA isolation from transgenic and wild type (WT) mouse tissues, the tissues from three animals were combined as described in the methods that outline the preparation of microsomal proteins. After pulverizing in liquid nitrogen, approximately 100 mg of tissue was homogenized in 1 ml of TRIzol™ solution, and the RNA extracted following the manufacturer's instructions. For each reverse transcription reaction, 2 μg of total RNA was denatured by heating and cDNA synthesized in 20 μl using the Omniscript RT™ kit (Qiagen) according to the manufacturer's instructions. From this reaction, 2 μl of the cDNA reaction was employed in each PCR reaction. Each PCR reaction contained 0.2 μM of mouse β-actin primers, 0.4 μM of each of the UGT1A specific oligonucleotide primer pair (11;15;50), and 15 μl HOTSTART MASTERMIX™ (Qiagen) in a 30 μl reaction. For UGT1A1, UGT1A3, UGT1A4, UGT1A5, UGT1A6, UGT1A7, UGT1A9 and UGT1A10 the polymerase was activated at 95° C. for 15 minutes followed by 30 cycles of 95° C. for 30 sec, 63° C. for 30 sec, and 72° C. for 45 sec, and a final extension at 72° C. for seven minutes. For UGT1A8 PCR amplification, the polymerase was activated at 95° C. for 15 min followed by 30 cycles of 95° C. for 30 sec, 58° C. for 30 sec, and 72° C. for 45 sec, and a final extension at 72° C. for seven minutes. Analysis of expressed RNA included an antisense oligonucleotide specific for the common region that encoded exon 2, while all of the sense primers encoded a highly specific segment of each exon 1 sequence that allowed for the unique identification of each UGT1A RNA. PCR reactions were carried out in a PerkinElmer Life Sciences GENEAMP™ DNA thermocycler PCR system. Ten microliters of each PCR product was resolved on a 1.5% agarose gel containing 1 μg/ml ethidium bromide and photographed using Polaroid 665 positive/negative film (Polaroid, Cambridge, Mass.).
as §3, §4
as §5, with “RNA. FIG. 6A: Samples of liver microsomal protein (10 μg) was separated by SDS-polyacrylamide gel electrophoresis, and immunoblot analysis performed using UGT1A1-, UGT1A4 or UGT1A6-antibodies. FIG. 6B: Total liver RNA (4 μg) was used in reverse transcription reactions followed by PCR analysis using isozyme-specific oligonucleotides.” for “RNA.”

[5] = test system: β-estradiol UGT activity; test: β-estradiol UGT activity in intestinal microsomes from PCN and TCDD treated Tg-UGT1c mice; assay type: in vivo, mouse; conditions: for Induction of β-estradiol glucuronidation: large intestine microsomes, Tg-UGT1c mice
Experimental: (§6) Microsomal Protein Isolation from Transgenic Mouse Tissues.
(§7) Reactions were terminated by the addition of 100 μl of methanol followed by centrifugation at top speed for 15 minutes. A 100 μl sample of the quenched reaction was spotted onto pre-adsorbent area of the TLC plate and develop in n-butanol/acetone/acetic acid/water (35:35:10:20) to achieve separation. ^14C-Labeled glucuronides were visualized with a STORM 820™ PhosphorImager (Molecular Dynamics/Amersham Biosciences). Silica gel in regions corresponding to the glucuronide bands were then scraped from the TLC plates, radioactivity measured by liquid scintillation counting, and specific catalytic activities were calculated in picomoles of glucuronide formed/mg of protein/min.
(§8) Values are the mean±S.E.M from triplicate experiments.

[6] = test system: β-estradiol UGT activity; test: β-estradiol UGT activity in intestinal microsomes from PCN treated wild type mice; assay type: in vivo, mouse; conditions: WT mice
Experimental: as §6, §7, §8

[7] = test system: UGT1A1
Experimental: as §2

[8] = test system: mouse Cyp3a11; test: Cyp3a11 RT-PCR in primary hepatocytes from Tg-UGT1c mice; conditions: primary hepatocytes treated with PCN
[9] = test system: mouse Cyp1a1; test: Cyp1a1 Western blot in primary hepatocytes from Tg-UGT1c mice; assay type: cell-based
Source text: Isolation and treatment of mouse transgenic primary hepatocytes. […] Mice were anesthetized by isoflurane inhalation.
Control hepatocyte cultures contained only DMSO (D).

[10] = test system: UGT1A gene transcripts (human UGT1 locus); test: Isoform-specific RT-PCR of UGT1A gene transcripts in tissues of treated Tg-UGT1c mice; assay type: in vivo, mouse; conditions: liver and small intestine, UGT1+/- mice treated with TCDD
[11] = Tg-UGT1c mice, i.p. every 24 h for 3 days
[12] = liver microsomes, Tg-UGT1c mice, i.p. every 24 h for 3 days

Row | Structure (SMILES) | UGT1A1 protein induction [1, 11] | UGT1A4 protein induction [2, 11] | UGT1A6 protein regulation [3, 11] | UGT1A1 RNA induction ([4]; liver, Tg-UGT1c mice) | UGT1A4 RNA ([4]; liver, Tg-UGT1c mice) | UGT1A6 RNA induction ([4]; liver, Tg-UGT1c mice) | Expression of UGT1A1, UGT1A3, UGT1A4, UGT1A6 and UGT1A9 gene transcripts ([4]; liver, Tg-UGT1c mice) | UGT1A gene transcript induction ([4]; Tg-UGT1c mice) | Induction of β-estradiol glucuronidation [5] | further results
1 | CC(=O)[C@H]1[C@H](C#N)C[C@H]2[C@@H]3CC=C4C[C@@H](O)CC[C@]4(C)[C@H]3CC[C@@]21C [PCN, Pregnenolone-16α-carbonitrile] | inducible | inducible in small and large intestine | predominantly regulated only in large intestine | significant induction | increase | induced | induce expression of each of these genes | induction of all of the UGT1A gene transcripts | induced β-estradiol glucuronidation significantly | Microsomal UGT1A1 protein induction ([1]; mouse, in vivo, ip): induction; Microsomal UGT1A4 protein induction ([2]; mouse, in vivo, ip): induction; Microsomal UGT1A6 protein induction ([3]; mouse, in vivo, ip): induction; β-estradiol glucuronidation activity, induced level over induced level in WT mice ([5]; small intestine microsomes, PCN treated Tg-UGT1c mice vs PCN treated WT mice): ~10 fold; Induction of β-estradiol glucuronidation ([6]; large intestine microsomes): induced β-estradiol glucuronidation significantly; Induction of UGT activity (β-estradiol) ([6]; small intestine microsomes): induced a minimal amount of UGT activity; UGT1A1 induction, hepatocytes cultured in dexamethasone [7]: significant induction; Cyp3a11 mRNA induction [8]: induction
2 | Clc1cc2c(cc1Cl)Oc1cc(Cl)c(Cl)cc1O2 [TCDD, 2,3,7,8-Tetrachlorodibenzo-p-dioxin] | inducible | inducible in small and large intestine | predominantly regulated only in large intestine | significant induction | increase | induced | induce expression of each of these genes | induction of all of the UGT1A gene transcripts | most significant induction | Microsomal UGT1A1 protein induction [1, 12]: induction; Microsomal UGT1A4 protein induction [2, 12]: induction; Microsomal UGT1A6 protein induction [3, 12]: induction; UGT1A10 induction ([4]; liver, Tg-UGT1c mice): induce; also recorded: significantly induced; Regulation of UGT1A5, UGT1A7 and UGT1A8 ([4]; liver, Tg-UGT1 mice): not regulated; UGT1A1 induction in presence of dexamethasone over the levels obtained only with TCDD treatment ([7]; primary hepatocytes cultured in 0.1 μM dexamethasone and treated with TCDD): 10 fold and > 10 fold; UGT1A1 induction ([7]; primary hepatocytes, compound alone, TCDD 10 nM 72 hours, PCN 10 μM, dexamethasone 0.1 μM): induction; Mouse Cyp1a1 induction ([9]; TCDD 72 hours): induction; Synergistic induction of Cyp1a1 in presence of glucocorticoids ([9]; TCDD with 0.1 μM dexamethasone): did not observe a synergistic induction; Expression of 1A1 and 1A6 [10]: elevated expression
